Results from patent US20070117813A1 (priority 2003, published 2007).
Like-named read-outs stand apart in the source and are kept apart here.

Key:
Phytophthora infestans = assay type: in vivo; details: tomato plants, protective spray, assessed after 6 days
Plasmopara viticola = assay: Activity against peronospora of grapevines caused by Plasmopara viticola; assay type: in vivo; details: grapevines cultivar Riesling
Description: The active compounds, separately or jointly, were prepared as a stock solution comprising 0.25% by weight of active compound in acetone or DMSO. 1% by weight of the emulsifier Uniperol® EL (wetting agent having emulsifying and dispersant action based on ethoxylated alkylphenols) was added to this solution, and the mixture was diluted with water to the desired concentration.
Use example 2—Activity against peronospora of grapevines caused by Plasmopara viticola
Leaves of potted grapevines of the cultivar “Riesling” were sprayed to runoff point with an aqueous suspension having the concentration of active compounds stated below. The next day, the undersides of the leaves were inoculated with an aqueous zoospore suspension of Plasmopara viticola. The grapevines were then initially placed in a water-vapor-saturated chamber at 24° C. for 48 hours and then in a greenhouse at temperatures between 20 and 30° C. for 5 days. After this period of time, the plants were, to promote sporangiophore eruption, again placed in a humid chamber for 16 hours. The extent of the development of the infection on the undersides of the leaves was then determined visually.
Evaluation was carried out analogously to example 1.

| Structure (SMILES) | Efficacy in % of the untreated control (Phytophthora infestans; 63 ppm in the spray liquor) [%] | Efficacy in % of the untreated control (Plasmopara viticola; 1 ppm in the spray liquor) [%] | Efficacy in % of the untreated control (Plasmopara viticola; 4 ppm in the spray liquor) [%] | Efficacy in % of the untreated control (Phytophthora infestans; 16 ppm in the spray liquor) [%] | Efficacy in % of the untreated control (Phytophthora infestans; 250 ppm in the spray liquor) [%] |
| --- | --- | --- | --- | --- | --- |
| CC1CCN(c2c(-c3c(F)cc(F)cc3F)c(Cl)nc3ncnn23)CC1 [I, 5-chloro-7-(4-methylpiperidin-1-yl)-6-(2,4,6-trifluorophenyl)-[1,2,4]triazolo[1,5-a]pyrimidine] | 9 | 4 | 52 |  |  |
| C[C@H](Nc1c(-c2c(F)cc(F)cc2F)c(Cl)nc2ncnn12)C(F)(F)F [comparative B] | 9 |  |  |  |  |
| CC(C)(C)C(O)(CCc1ccc(Cl)cc1)Cn1cncn1 (racemic) [II, (R,S)-1-(4-chlorophenyl)-4,4-dimethyl-3-(1H-1,2,4-triazol-1-ylmethyl)pentan-3-ol] |  | 0 | 28 | 0 | 0 |
| CC1CCN(c2c(-c3c(F)cccc3Cl)c(Cl)nc3ncnn23)CC1 [comparative A] | 0 |  |  |  |  |
